From ChEMBL document CHEMBL1201862, “PubChem BioAssay data set” (2004)
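Exposure lasted 48 hours, with cells grown in 96-well plates and compounds tested at five concentrations. Here, GI50 denotes the concentration required for 50% inhibition of growth.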 Active and inactive are the calls of the source. Cut-off read from the data, not from the text of the source: active = GI50 up to about 1.1 µM and inactive = higher.

Assays:
Assay in all cases: NCI anticancer screen, dose series, 48 h
RPMI-8226 = tested on: RPMI-8226
MDA-N = tested on: MDA-N
MDA-MB-231 = tested on: MDA-MB-231
COLO 205 = tested on: COLO 205
SK-MEL-5 = tested on: SK-MEL-5
PC-3 = tested on: PC-3
RXF 393 = tested on: RXF 393
SK-MEL-28 = tested on: SK-MEL-28
DMS-114 = tested on: DMS-114
CAKI-1 = tested on: CAKI-1
SNB-78 = tested on: SNB-78
DU-145 = tested on: DU-145
U-251 = tested on: U-251
KM-20L2 = tested on: KM-20L2
SK-OV-3 = tested on: SK-OV-3
UACC-257 = tested on: UACC-257
RXF 631 = tested on: RXF 631
XF498 = tested on: XF498
SF-539 = tested on: SF-539
OVCAR-4 = tested on: OVCAR-4
NCI-H522 = tested on: NCI-H522
HCT-15 = tested on: HCT-15
A498 = tested on: A498
CCRF-CEM = tested on: CCRF-CEM
HCC 2998 = tested on: HCC 2998
UO-31 = tested on: UO-31
HOP-62 = tested on: HOP-62
A549 = tested on: A549
SNB-75 = tested on: SNB-75
MCF7 = tested on: MCF7
HOP-18 = tested on: HOP-18
KM12 = tested on: KM12
SK-MEL-2 = tested on: SK-MEL-2
HT-29 = tested on: HT-29
IGROV-1 = tested on: IGROV-1
DMS-273 = tested on: DMS-273
NCI/ADR-RES = tested on: NCI/ADR-RES
M19-MEL = tested on: M19-MEL
HCT-116 = tested on: HCT-116
K562 = tested on: K562
BT-549 = tested on: BT-549
NCI-H460 = tested on: NCI-H460
OVCAR-3 = tested on: OVCAR-3
M14 = tested on: M14
NCI-H226 = tested on: NCI-H226
UACC-62 = tested on: UACC-62
T47D = tested on: T47D
SW-620 = tested on: SW-620
LXFL 529 = tested on: LXFL 529
Hs-578T = tested on: Hs-578T
OVCAR-8 = tested on: OVCAR-8
786-0 = tested on: 786-0
SF-295 = tested on: SF-295
SNB-19 = tested on: SNB-19
HOP-92 = tested on: HOP-92
EKVX = tested on: EKVX
NCI-H23 = tested on: NCI-H23
Malme-3M = tested on: Malme-3M
DLD-1 = tested on: DLD-1
HL-60 = tested on: HL-60
LOX IMVI = tested on: LOX IMVI
SN12C = tested on: SN12C
ACHN = tested on: ACHN
SF-268 = tested on: SF-268
OVCAR-5 = tested on: OVCAR-5
MDA-MB-435 = tested on: MDA-MB-435
SR = tested on: SR
TK-10 = tested on: TK-10
MOLT-4 = tested on: MOLT-4

Oc1cc(-n2cccn2)c(O)cc1-n1cccn1
GI50 (RPMI-8226): 15.2 µM (inactive)
GI50 (MDA-N): 17.6 µM (inactive)
GI50 (MDA-MB-231): 21.9 µM (inactive)
GI50 (COLO 205): 18.1 µM (inactive)
GI50 (SK-MEL-5): 32.6 µM (inactive)
GI50 (PC-3): 21.6 µM (inactive)
GI50 (RXF 393): 16.7 µM (inactive)
GI50 (SK-MEL-28): 40.8 µM (inactive)
GI50 (DMS-114): 26.4 µM (inactive)
GI50 (CAKI-1): 23.6 µM (inactive)
GI50 (SNB-78): 34.8 µM (inactive)
GI50 (DU-145): > 48.2 µM (inactive)
GI50 (U-251): 52.4 µM (inactive)
GI50 (KM-20L2): > 85.7 µM (inactive)
GI50 (SK-OV-3): > 100 µM (inactive)
GI50 (UACC-257): 32.1 µM (inactive)
GI50 (RXF 631): > 60.8 µM (inactive)
GI50 (XF498): 16.3 µM (inactive)
GI50 (SF-539): 62.1 µM (inactive)
GI50 (OVCAR-4): 19 µM (inactive)
GI50 (NCI-H522): 11.5 µM (inactive)
GI50 (HCT-15): 28.8 µM
GI50 (A498): > 72.8 µM (inactive)
GI50 (CCRF-CEM): 7.11 µM (inactive)
GI50 (HCC 2998): > 100 µM (inactive)
GI50 (UO-31): 23.8 µM (inactive)
GI50 (HOP-62): > 63.1 µM (inactive)
GI50 (A549): > 86.9 µM (inactive)
GI50 (SNB-75): > 69.2 µM (inactive)
GI50 (MCF7): 19.1 µM (inactive)
GI50 (HOP-18): 67.9 µM (inactive)
GI50 (KM12): 57.7 µM (inactive)
GI50 (SK-MEL-2): > 88.5 µM (inactive)
GI50 (HT-29): 23 µM (inactive)
GI50 (IGROV-1): 54.6 µM (inactive)
GI50 (DMS-273): 41.3 µM (inactive)
GI50 (NCI/ADR-RES): 29.4 µM (inactive)
GI50 (M19-MEL): 23.7 µM (inactive)
GI50 (HCT-116): 26.2 µM (inactive)
GI50 (K562): 11.2 µM (inactive)
GI50 (BT-549): 18.7 µM (inactive)
GI50 (NCI-H460): > 100 µM (inactive)
GI50 (OVCAR-3): 19.1 µM (inactive)
GI50 (M14): 27 µM (inactive)
GI50 (NCI-H226): 62.5 µM (inactive)
GI50 (UACC-62): 38.9 µM (inactive)
GI50 (T47D): 22.3 µM (inactive)
GI50 (SW-620): 19.1 µM (inactive)
GI50 (LXFL 529): 19.4 µM (inactive)
GI50 (Hs-578T): > 100 µM (inactive)
GI50 (OVCAR-8): 26.2 µM (inactive)
GI50 (786-0): 16.6 µM (inactive)
GI50 (SF-295): 37.8 µM (inactive)
GI50 (SNB-19): > 70.1 µM (inactive)
GI50 (HOP-92): 21 µM (inactive)
GI50 (EKVX): > 69.2 µM (inactive)
GI50 (NCI-H23): 43.7 µM (inactive)
GI50 (Malme-3M): 30.7 µM (inactive)
GI50 (DLD-1): 32.6 µM (inactive)
GI50 (HL-60): 6.43 µM (inactive)
GI50 (LOX IMVI): 21 µM (inactive)
GI50 (SN12C): 19.3 µM (inactive)
GI50 (ACHN): 22.4 µM (inactive)
GI50 (SF-268): 55.7 µM (inactive)
GI50 (OVCAR-5): 53.1 µM (inactive)
GI50 (MDA-MB-435): 17.5 µM (inactive)
GI50 (SR): 12.6 µM (inactive)
GI50 (TK-10): 26.8 µM (inactive)
GI50 (MOLT-4): 9.55 µM (inactive)
